From patent publication US9247759B2, “Identification of human T2R receptors that respond to bitter compounds that elicit the bitter taste in compositions, and the use thereof in assays to identify compounds that inhibit (block) bitter taste in compositions and use thereof” (SENOMYX, INC., priority 2007, dated 2016)
Where two headings read alike, the source gives them in different places.

Columns and labels:
hT2R14 [1] = biological target: T1, hT2R14 (Homo sapiens (Human), UniProt Q9NYV8); assay: hT2R14 antagonist high-throughput FLIPR assay, stable cell line with G16g44, agonist aristolochic acid; format: cell-based
Outline: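 HEK293 cells stably expressing hT2R14 with chimeric G16g44 were stimulated with aristolochic acid (3 μM), giving 70-80% of maximal receptor activity. Test compounds were added together with the agonist, and antagonism was read as fluorescent calcium signal on FLIPR.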

hT2R3 = hT2R3 (Homo sapiens (Human), UniProt Q9NYW6); assay: hT2R panel inhibition, transient HEK293 G16g44, agonist Chloroquine pH6.5 50 μM; format: cell-based; conditions: HEK293, compound at 25 μM
Outline: (§1)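 Here, inhibition reflects how much the test compound lowers activation of a transiently expressed human bitter receptor stimulated at EC80. Twenty-two such receptors were tested separately.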

hT2R5 = hT2R5 (Homo sapiens (Human), UniProt Q9NYW4); assay: hT2R panel inhibition, transient HEK293 G16g44, agonist Picoline 10 mM; format: cell-based; conditions: HEK293, compound at 25 μM
Outline: as §1

hT2R7 = hT2R7 (Homo sapiens (Human), UniProt Q9NYW3); assay: hT2R panel inhibition, transient HEK293 G16g44, agonist Chloroquine pH6.5 10 mM; format: cell-based; conditions: HEK293, compound at 25 μM
Outline: as §1

hT2R13 = hT2R13 (Homo sapiens (Human), UniProt Q9NYV9); assay: hT2R panel inhibition, transient HEK293 G16g44, agonist Oxyphenonium 1 mM; format: cell-based; conditions: HEK293, compound at 25 μM; receptor activated to EC80 with agonist; read-out: inhibition of bitter receptor 13
Procedure: (§2) Specifically, in order to evaluate the inhibitory selectivity of the Compound C compound, this compound was tested against 22 human T2Rs which were deorphaned by Senomyx. These receptors and the bitter ligands that activate these human T2Rs are reported in earlier patent applications which are incorporated by reference herein. These 22 human T2Rs are hT2R1, 3, 4, 5, 7, 8, 9, 10, 13, 14, 16, 44, 51, 54, 55, 61, 63, 64, 65, 67, 71 and 75. The amino acid and nucleic acid sequences of all of these T2Rs may be found in these earlier patent applications. These human T2Rs were each individually transiently transfected into HEK293 cells that stably express the promiscuous G protein G16g44 and functional assays were effected using these receptors as disclosed in these same patent applications. […] The ligands were used at EC80 concentration levels. The list of bitter ligands utilized and the tested ligand concentrations are contained in Table 5 of this example.
(§3) Relating to the foregoing, FIG. 5 contains experimental results wherein Compound C was tested with different agonist compounds. The inhibition activity is represented by the reduction of receptor activity in the presence of Compound C. […] These 13 hT2Rs are hT2R3, 7, 10, 14, 16, 44, 51, 55, 61, 63, 64, 65, and 71.

hT2R14 [2] = biological target: T1, hT2R14; assay: hT2R panel inhibition, transient HEK293 G16g44, agonist Aristolochic Acid 2 μM; format: cell-based; conditions: HEK293, compound at 25 μM
Outline: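 Each hT2R was transiently transfected into HEK293 cells stably expressing G16g44 and assayed functionally for inhibition of agonist response. Agonists were applied at EC80: andrographolide at 0.5 mM for hT2R8 and aristolochic acid at 2 μM for hT2R14.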

hT2R44 = assay: hT2R panel inhibition, transient HEK293 G16g44, agonist Denatonium 0.5 μM; format: cell-based, human; conditions: compound at 25 μM; for inhibition of bitter receptor 44: receptor activated to EC80 with agonist
Outline: as §1

hT2R61 = hT2R61 (Homo sapiens (Human), UniProt P59537); assay: hT2R panel inhibition, transient HEK293 G16g44, agonist Aristolochic Acid 25 nM; format: cell-based; conditions: HEK293, compound at 25 μM
Outline: as §1

hT2R64 = hT2R64 (Homo sapiens (Human), UniProt P59538); assay: hT2R panel inhibition, transient HEK293 G16g44, agonist Aristolochic Acid 1 μM; format: cell-based; conditions: HEK293, compound at 25 μM
Outline: as §1

hT2R4 = hT2R4 (Homo sapiens (Human), UniProt Q9NYW5); assay: hT2R panel inhibition, transient HEK293 G16g44, agonist Chloroquine pH6.5 5 mM; format: cell-based; conditions: HEK293, compound at 25 μM; receptor activated to EC80 with the corresponding agonist; class symbols; read-out: screening result against bitter receptor 4
Outline: as §1

hT2R9 = hT2R9 (Homo sapiens (Human), UniProt Q9NYW1); assay: hT2R panel inhibition, transient HEK293 G16g44, agonist Ofloxacin 1 mM; format: cell-based; conditions: HEK293, compound at 25 μM; receptor activated to EC80 with the corresponding agonist; read-out: screening result against bitter receptor 9
Procedure: as §2, §3

hT2R10 = hT2R10 (Homo sapiens (Human), UniProt Q9NYW0); assay: hT2R panel inhibition, transient HEK293 G16g44, agonist Strychnine 50 μM; format: cell-based; conditions: HEK293, read-out: screening result against bitter receptor 10, compound at 25 μM; receptor activated to EC80 with the corresponding agonist
hT2R16 = hT2R16 (Homo sapiens (Human), UniProt Q9NYV7); assay: hT2R panel inhibition, transient HEK293 G16g44, agonist Salicin 1 mM; format: cell-based; conditions: HEK293, compound at 25 μM; receptor activated to EC80 with the corresponding agonist; read-out: screening result against bitter receptor 16
Outline: as §1

hT2R51 = hT2R51 (Homo sapiens (Human), UniProt P59533); assay: hT2R panel inhibition, transient HEK293 G16g44, agonist Prop 2.5 μM; format: cell-based; conditions: HEK293, compound at 25 μM; receptor activated to EC80 with the corresponding agonist; read-out: screening result against bitter receptor 51
Outline: as §1

hT2R54 = assay: hT2R panel inhibition, transient HEK293 G16g44, agonist Ranitidine 5 mM; format: cell-based, human; conditions: compound at 25 μM; receptor activated to EC80 with the corresponding agonist
Outline: as §1

hT2R55 = assay: hT2R panel inhibition, transient HEK293 G16g44, agonist Cinchonine 150 μM; format: cell-based, human; conditions: compound at 25 μM; receptor activated to EC80 with the corresponding agonist
Outline: as §1

hT2R63 = assay: hT2R panel inhibition, transient HEK293 G16g44, agonist Caffeine 1 mM or Andrographolide 100 μM; format: cell-based, human; conditions: compound at 25 μM
Outline: as §1

hT2R65 = assay: hT2R panel inhibition, transient HEK293 G16g44, agonist Oleuropein 1 mM; format: cell-based, human; conditions: compound at 25 μM; receptor activated to EC80 with the corresponding agonist
Outline: as §1

hT2R67 = assay: hT2R panel inhibition, transient HEK293 G16g44, agonist Andrographolide 5 μM; format: cell-based, human; conditions: compound at 25 μM; receptor activated to EC80 with the corresponding agonist
Outline: as §1

hT2R71 = hT2R71 (Homo sapiens (Human), UniProt P59536); assay: hT2R panel inhibition, transient HEK293 G16g44, agonist Picric Acid 10 μM; format: cell-based; conditions: HEK293, compound at 25 μM
Outline: as §1

hT2R75 = hT2R75 (Homo sapiens (Human), UniProt P59540); assay: hT2R panel inhibition, transient HEK293 G16g44, agonist Strychnine 1 μM; format: cell-based; conditions: HEK293, read-out: screening result against bitter receptor 75, compound at 25 μM; receptor activated to EC80 with the corresponding agonist
[3] = receptor activated to EC80 with agonist, read-out: inhibition of bitter receptor 14
[4] = receptor activated to EC80 with the corresponding agonist

T1 sequence (Q9NYV8 whole entry): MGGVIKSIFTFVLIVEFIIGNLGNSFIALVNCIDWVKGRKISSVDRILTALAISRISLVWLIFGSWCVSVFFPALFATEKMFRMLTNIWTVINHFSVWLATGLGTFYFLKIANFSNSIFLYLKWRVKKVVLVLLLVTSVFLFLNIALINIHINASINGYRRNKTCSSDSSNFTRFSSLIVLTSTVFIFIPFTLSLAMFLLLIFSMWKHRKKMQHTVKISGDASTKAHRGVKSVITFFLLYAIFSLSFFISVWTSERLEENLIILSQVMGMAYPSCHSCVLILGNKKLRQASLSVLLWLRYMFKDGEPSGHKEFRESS
Chain of hT2R5 (Q9NYW4 whole entry): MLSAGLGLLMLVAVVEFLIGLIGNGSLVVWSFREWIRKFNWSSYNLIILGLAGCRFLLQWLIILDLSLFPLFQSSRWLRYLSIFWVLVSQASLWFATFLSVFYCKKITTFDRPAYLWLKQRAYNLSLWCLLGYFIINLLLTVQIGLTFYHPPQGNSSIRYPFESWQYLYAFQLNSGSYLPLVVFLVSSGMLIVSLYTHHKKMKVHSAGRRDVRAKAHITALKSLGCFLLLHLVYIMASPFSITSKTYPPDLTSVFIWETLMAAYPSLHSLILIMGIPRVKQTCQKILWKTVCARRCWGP
Chain of hT2R7 (Q9NYW3 whole entry): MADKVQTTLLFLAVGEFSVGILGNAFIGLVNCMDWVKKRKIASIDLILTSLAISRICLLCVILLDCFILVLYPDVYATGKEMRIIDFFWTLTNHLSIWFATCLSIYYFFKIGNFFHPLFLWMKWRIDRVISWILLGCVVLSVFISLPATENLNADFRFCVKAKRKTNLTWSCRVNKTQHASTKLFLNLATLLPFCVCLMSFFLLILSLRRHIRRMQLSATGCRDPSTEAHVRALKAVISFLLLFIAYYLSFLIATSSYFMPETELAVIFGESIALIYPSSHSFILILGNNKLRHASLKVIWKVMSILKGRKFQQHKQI
Chain of hT2R64 (P59538 whole entry): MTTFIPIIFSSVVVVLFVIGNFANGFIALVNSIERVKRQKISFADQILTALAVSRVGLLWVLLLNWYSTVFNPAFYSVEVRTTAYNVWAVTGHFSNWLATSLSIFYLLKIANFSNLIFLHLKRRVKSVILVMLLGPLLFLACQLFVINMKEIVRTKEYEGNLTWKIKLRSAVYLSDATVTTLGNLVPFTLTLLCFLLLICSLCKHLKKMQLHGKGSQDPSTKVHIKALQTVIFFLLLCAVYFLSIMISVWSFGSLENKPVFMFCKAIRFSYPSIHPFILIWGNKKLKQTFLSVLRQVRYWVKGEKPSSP
Chain of hT2R61 (P59537 whole entry): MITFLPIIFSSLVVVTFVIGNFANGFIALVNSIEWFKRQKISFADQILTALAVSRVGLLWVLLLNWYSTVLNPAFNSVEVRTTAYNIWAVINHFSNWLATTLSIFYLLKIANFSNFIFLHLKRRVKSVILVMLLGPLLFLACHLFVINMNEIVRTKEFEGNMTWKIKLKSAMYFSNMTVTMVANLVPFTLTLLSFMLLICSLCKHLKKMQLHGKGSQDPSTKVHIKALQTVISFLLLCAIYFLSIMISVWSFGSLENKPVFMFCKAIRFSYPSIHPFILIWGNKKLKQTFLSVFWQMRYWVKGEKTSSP
Chain of hT2R3 (Q9NYW6 whole entry): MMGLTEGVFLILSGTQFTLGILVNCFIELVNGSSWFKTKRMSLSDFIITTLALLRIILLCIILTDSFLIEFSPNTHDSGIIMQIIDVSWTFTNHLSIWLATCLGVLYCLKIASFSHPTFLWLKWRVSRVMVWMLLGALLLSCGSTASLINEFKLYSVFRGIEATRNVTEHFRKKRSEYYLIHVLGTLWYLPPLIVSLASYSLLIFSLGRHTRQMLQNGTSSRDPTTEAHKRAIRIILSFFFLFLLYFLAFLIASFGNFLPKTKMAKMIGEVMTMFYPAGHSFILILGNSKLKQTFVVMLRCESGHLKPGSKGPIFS
Chain of hT2R71 (P59536 whole entry): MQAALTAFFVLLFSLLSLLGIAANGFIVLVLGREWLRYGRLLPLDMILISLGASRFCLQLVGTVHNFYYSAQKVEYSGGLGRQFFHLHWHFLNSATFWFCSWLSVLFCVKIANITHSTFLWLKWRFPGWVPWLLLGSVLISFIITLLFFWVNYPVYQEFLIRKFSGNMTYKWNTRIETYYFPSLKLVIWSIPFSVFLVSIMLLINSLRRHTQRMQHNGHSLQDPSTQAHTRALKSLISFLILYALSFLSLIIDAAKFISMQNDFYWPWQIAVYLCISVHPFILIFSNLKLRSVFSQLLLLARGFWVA
Chain of hT2R13 (Q9NYV9 whole entry): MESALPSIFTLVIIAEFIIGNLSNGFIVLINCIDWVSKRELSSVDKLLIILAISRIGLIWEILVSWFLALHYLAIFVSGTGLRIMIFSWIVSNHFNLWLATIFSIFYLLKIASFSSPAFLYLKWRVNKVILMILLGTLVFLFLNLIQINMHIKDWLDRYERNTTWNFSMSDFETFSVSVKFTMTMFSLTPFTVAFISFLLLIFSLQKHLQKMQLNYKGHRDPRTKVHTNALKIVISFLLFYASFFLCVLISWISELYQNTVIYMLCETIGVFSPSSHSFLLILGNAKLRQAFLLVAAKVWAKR
Chain of hT2R16 (Q9NYV7 whole entry): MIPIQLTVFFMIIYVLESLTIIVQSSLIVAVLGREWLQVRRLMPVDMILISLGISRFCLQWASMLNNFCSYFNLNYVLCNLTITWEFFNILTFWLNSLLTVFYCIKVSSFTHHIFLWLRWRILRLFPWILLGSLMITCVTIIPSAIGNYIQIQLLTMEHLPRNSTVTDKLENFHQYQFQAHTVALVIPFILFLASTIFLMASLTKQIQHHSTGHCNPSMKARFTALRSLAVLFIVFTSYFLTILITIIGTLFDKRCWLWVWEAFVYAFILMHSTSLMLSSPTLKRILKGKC
Chain of hT2R4 (Q9NYW5 whole entry): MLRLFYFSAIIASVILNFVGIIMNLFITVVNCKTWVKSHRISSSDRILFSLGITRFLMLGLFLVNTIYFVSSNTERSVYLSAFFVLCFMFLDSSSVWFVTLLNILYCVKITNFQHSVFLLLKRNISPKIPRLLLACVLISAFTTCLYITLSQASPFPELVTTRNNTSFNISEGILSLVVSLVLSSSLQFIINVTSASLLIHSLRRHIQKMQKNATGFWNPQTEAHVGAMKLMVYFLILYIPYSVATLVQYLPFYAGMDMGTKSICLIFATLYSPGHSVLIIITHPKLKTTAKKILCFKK
Chain of hT2R75 (P59540 whole entry): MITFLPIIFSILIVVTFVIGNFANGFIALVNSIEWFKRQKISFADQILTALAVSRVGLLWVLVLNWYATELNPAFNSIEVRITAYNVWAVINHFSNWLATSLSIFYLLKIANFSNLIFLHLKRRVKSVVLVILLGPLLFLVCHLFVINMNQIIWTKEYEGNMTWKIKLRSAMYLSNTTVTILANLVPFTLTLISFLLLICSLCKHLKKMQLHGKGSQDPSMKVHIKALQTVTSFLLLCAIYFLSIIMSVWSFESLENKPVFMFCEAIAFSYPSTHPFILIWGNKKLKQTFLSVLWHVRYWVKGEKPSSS
Chain of hT2R9 (Q9NYW1 whole entry): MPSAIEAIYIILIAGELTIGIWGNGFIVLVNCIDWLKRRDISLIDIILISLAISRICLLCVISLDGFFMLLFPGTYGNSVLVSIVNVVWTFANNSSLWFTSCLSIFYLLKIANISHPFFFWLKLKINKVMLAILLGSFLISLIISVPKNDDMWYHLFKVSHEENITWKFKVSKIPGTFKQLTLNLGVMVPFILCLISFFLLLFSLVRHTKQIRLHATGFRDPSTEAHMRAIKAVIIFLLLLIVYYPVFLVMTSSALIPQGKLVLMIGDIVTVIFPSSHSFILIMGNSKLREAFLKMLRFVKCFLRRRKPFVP
Chain of hT2R10 (Q9NYW0 whole entry): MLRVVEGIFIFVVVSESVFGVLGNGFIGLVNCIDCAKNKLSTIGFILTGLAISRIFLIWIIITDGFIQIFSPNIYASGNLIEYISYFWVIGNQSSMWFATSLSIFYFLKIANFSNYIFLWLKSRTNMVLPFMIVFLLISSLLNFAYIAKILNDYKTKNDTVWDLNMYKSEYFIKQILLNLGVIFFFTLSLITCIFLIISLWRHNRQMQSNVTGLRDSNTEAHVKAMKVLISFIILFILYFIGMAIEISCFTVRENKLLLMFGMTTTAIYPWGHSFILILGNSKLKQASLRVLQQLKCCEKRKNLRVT
Chain of hT2R51 (P59533 whole entry): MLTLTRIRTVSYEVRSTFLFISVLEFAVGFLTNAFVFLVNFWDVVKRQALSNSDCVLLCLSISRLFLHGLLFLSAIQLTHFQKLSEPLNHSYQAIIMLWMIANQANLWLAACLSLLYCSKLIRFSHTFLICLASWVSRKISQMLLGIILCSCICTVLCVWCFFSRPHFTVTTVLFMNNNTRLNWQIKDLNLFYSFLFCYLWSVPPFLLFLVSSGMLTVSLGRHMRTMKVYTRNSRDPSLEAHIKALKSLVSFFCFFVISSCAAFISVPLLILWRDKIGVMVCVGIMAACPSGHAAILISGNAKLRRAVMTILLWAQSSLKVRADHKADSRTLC

## Cc1cc2c(cc1S(=O)(=O)Nc1ccc(F)cc1)n(C)c(=O)c(=O)n2C [Example 6-10, N-(4-fluorophenyl)-1,4,7-trimethyl-2,3-dioxo-1,2,3,4-tetrahydroquinoxaline-6-sulfonamide]
hT2R14 [1]; Table D, read-out: hT2R14 IC50
  IC50: 12.6 µM
hT2R3; receptor activated to EC80 with agonist, read-out: inhibition of bitter receptor 3
  inhibition at 25 µM: 20 to 40%
hT2R5; receptor activated to EC80 with agonist, read-out: inhibition of bitter receptor 5
  inhibition at 25 µM: 20 to 40%
hT2R7; receptor activated to EC80 with agonist, read-out: inhibition of bitter receptor 7
  inhibition at 25 µM: 20 to 40%
hT2R13
  inhibition at 25 µM: 40 to 60%
hT2R14 [2]; [3]
  inhibition at 25 µM: 40 to 60%
hT2R44
  inhibition of bitter receptor 44: + (20% to 40% inhibition = +)
hT2R61; receptor activated to EC80 with agonist, read-out: inhibition of bitter receptor 61
  inhibition at 25 µM: 20 to 40%
hT2R64; receptor activated to EC80 with agonist, read-out: inhibition of bitter receptor 64
  inhibition at 25 µM: 20 to 40%

## O=C(O)c1ccc(CN(Cc2cccc(F)c2)S(=O)(=O)c2ccccc2)cc1 [Example 5-104, 4-((N-(3-fluorobenzyl)phenylsulfonamido)methyl)-benzoic acid]
hT2R14 [1]; Table C, read-out: hT2R14 IC50
  IC50: 0.406 µM
hT2R3; receptor activated to EC80 with the corresponding agonist, read-out: screening result against bitter receptor 3
  inhibition at 25 µM: 40 to 60%
hT2R4
  inhibition at 25 µM: 40 to 60%
hT2R5; receptor activated to EC80 with the corresponding agonist, read-out: screening result against bitter receptor 5
  inhibition at 25 µM: 40 to 60%
hT2R7; receptor activated to EC80 with the corresponding agonist, read-out: screening result against bitter receptor 7
  inhibition at 25 µM: 40 to 60%
hT2R9
  inhibition at 25 µM: 20 to 40%
hT2R10
  inhibition at 25 µM: 40 to 60%
hT2R14 [2]; receptor activated to EC80 with the corresponding agonist, read-out: screening result against bitter receptor 14
  inhibition at 25 µM: > 80%
hT2R16
  inhibition at 25 µM: 20 to 40%
hT2R44; [4]
  screening result against bitter receptor 44: +++ (60% to 80% inhibition = +++)
hT2R51
  inhibition at 25 µM: 20 to 40%
hT2R54
  screening result against bitter receptor 54: + (20% to 40% inhibition = +)
hT2R55
  screening result against bitter receptor 55: +++ (60% to 80% inhibition = +++)
hT2R61; receptor activated to EC80 with the corresponding agonist, read-out: screening result against bitter receptor 61
  inhibition at 25 µM: > 80%
hT2R63; [4]
  screening result against bitter receptor 63: ++ (40% to 60% inhibition = ++)
hT2R64; receptor activated to EC80 with the corresponding agonist, read-out: screening result against bitter receptor 64
  inhibition at 25 µM: > 80%
hT2R65
  screening result against bitter receptor 65: +++ (60% to 80% inhibition = +++)
hT2R67
  screening result against bitter receptor 67: ++ (40% to 60% inhibition = ++)
hT2R71; receptor activated to EC80 with the corresponding agonist, read-out: screening result against bitter receptor 71
  inhibition at 25 µM: 60 to 80%
hT2R75
  inhibition at 25 µM: 40 to 60%

## Cn1c(=O)c(=O)n(C)c2cc(S(=O)(=O)Nc3ccc4c(c3)OCCO4)ccc21 [Example 6-3, N-(2,3-dihydrobenzo[b][1,4]dioxin-6-yl)-1,4-dimethyl-2,3-dioxo-1,2,3,4-tetrahydroquinoxaline-6-sulfonamide]
hT2R14 [1]; read-out: IC50 on hT2R14 bitter receptor
  IC50: 7.71 µM
hT2R13
  inhibition at 25 µM: 20 to 40%
hT2R14 [2]; [3]
  inhibition at 25 µM: > 80%
hT2R44
  inhibition of bitter receptor 44: + (20% to 40% inhibition = +)
hT2R63; receptor activated to EC80 with agonist
  inhibition of bitter receptor 63: + (20% to 40% inhibition = +)
hT2R71; receptor activated to EC80 with agonist, read-out: inhibition of bitter receptor 71
  inhibition at 25 µM: 20 to 40%
